Data taken from PMC6764326, “The Trials and Tribulations of Structure Assisted Design of KCa Channel Activators” (Frontiers in Pharmacology, 2019).

What was measured:
[1] = design: method as in Coleman et al., 2014; conditions: ref Coleman et al., 2014, cited from earlier work; for KCa2 channel mediated side effects on CNS and heart rate: mice; for Blood pressure lowering: normotensive and hypertensive mice
[2] = system: KCa3.1 over KCa2 channels; conditions: second generation activators; ref Coleman et al., 2014; cited from earlier work
[3] = biological target: T1, KCa2.2 (Homo sapiens, UniProt P0DP23+Q9H2S1); assay: QPatch automated whole-cell patch-clamp screen, 10 µM activator normalized to 10 µM SKA-31; format: cell-based; conditions: 250 nM free internal Ca2+, HEK cells stably expressing channel
T1 construct: expressed in transfected cells
Method: (§1) All experiments were performed in either the inside-out or the whole-cell configuration of the patch-clamp technique on either transiently transfected CHO cells or Human Embryonic Kidney (HEK) cell lines stably expressing hKCa3.1 or hKCa2.2 ([Sankaranarayanan et al., 2009]). All cells were cultured in Dulbecco’s modified Eagle’s medium supplemented with 10% fetal calf serum. Wild-type (WT) and mutant hKCa3.1 channel constructs were transfected using FuGENE 6 transfection reagent (Promega, Madison, WI) in OptiMEM reduced-serum medium (Life Technologies, Benicia, CA) for manual patch-clamp experiments or via electroporation (Nucleofector 2b and Lonza Amaxa Cell Line Nucleofector Kit T) according to the manufacturer’s instructions for automated electrophysiology.
(§2) The procedure for performing automated whole-cell KCa channel recordings on a QPatch-16 automated electrophysiology platform (Sophion Biosciences) was previously described in detail by our laboratory ([Jenkins et al., 2013]). For the current study we used the solutions described above with disposable 16-channel planar patch chip plates (QPlates; patch hole diameter […], resistance 2.00–0.02MΩ, Sophion Biosciences, Woburn, MA). Cell positioning and sealing parameters were set as follows: positioning pressure -70 mbar, resistance increase for success 750%, minimum seal resistance 0.1 GΩ, holding potential -0 mV, holding pressure -20 mbar. To avoid rejection of cells with large KCa3.1 currents, the minimum seal resistance for whole-cell requirement was lowered to 0.001 GΩ. Access was obtained with the following sequence: 1) suction pulses in 29 mbar increments from -250 mbar to -453 mbar; 2) a suction ramp of an amplitude of -450 mbar; 3) -400 mV voltage zaps of 1 ms duration. Following establishment of the whole-cell configuration, cells were held at -80 mV and KCa currents elicited by a voltage protocol that held at -80 mV for 20 ms, stepped to -120 mV for 20 ms, ramped from -120 to + 40 mV in 200 ms, and then stepped back to -120 mV for 20 ms. This pulse protocol was applied every 10 s. KCa activator dilutions were prepared freshly (within 5 min of the initiation of the QPatch) with Ringer’s solution from 10 mM stock solutions in dry DMSO. Final DMSO concentrations never exceeded 1%. Glass vial inserts (to avoid adsorption) were filled with 400 µL of compound solution and placed into the insert base plate for use in the QPatch assay. Exemplary QPatch raw current traces and plots of slope conductance versus time are shown in Supplementary Figure 3 . For each compound we typically used 12 consecutive liquid periods Break-in, 3 saline additions to stabilize the current, 2 additions of test compound at 10 µM, 2 saline washes, 2 additions of SKA-31 at 10 µM, followed by 2 more saline washes. In each liquid period 10 pulse protocols were run.
(§3) The newly synthesized compounds were tested by automated whole-cell patch-clamp for their ability to activate KCa2.2 and KCa3.1 channels stably expressed in HEK cells. […] A promising compound would ideally do both. […] We started by comparing the effect of the SKA-74 derivatives to SKA-31 ( Figure 4A ).
(§4) Figure 4 Whole-cell KCa3.1 and KCa2.2 responses elicited by 10 µM of activator and normalized to 10 µM of the mixed activator SKA-31. Experiments were performed by automated electrophysiology with 250 nM of free internal Ca^2+. In each experiment the new activator was tested first, washed out with 2 saline additions, and then SKA-31 was applied as positive control for normalization of the response. (A) Screening of SKA-74 derivatives. (B) Screening of SKA-75 and SKA-76 derivatives. The bar graphs show means ± SD of the slope conductance measured between −85 and −65 mV (n = 2–7 cells). Chemical structures are shown below the bar graphs.
(§5) Figure 5 Whole-cell KCa3.1 and KCa2.2 responses elicited by 10 µM of activator and normalized to 10 µM of the mixed activator SKA-31. […]

[4] = biological target: T2, KCa3.1 (Homo sapiens, UniProt O15554+P0DP23); assay: as above; format: cell-based; conditions: 250 nM free internal Ca2+, HEK cells stably expressing channel
T2 construct: expressed in transfected cells
Method: as §1, §2, §3, §4, §5

| melting point [°C] | Whole-cell KCa2.2 response elicited by 10 µM of activator normalized to 10 µM SKA-31 (described in words) [3] | Whole-cell KCa3.1 response elicited by 10 µM of activator normalized to 10 µM SKA-31 (described in words) [4] | Compound | KCa2 channel mediated side effects on CNS and heart rate [1] | Blood pressure lowering [1] | Selectivity for KCa3.1 [2] |
| --- | --- | --- | --- | --- | --- | --- |
|  |  |  | Cc1cc2sc(N)nc2c2ccccc12 [SKA-111, 5-methylnaphtho[1,2-d]thiazol-2-amine] | avoiding KCa2 channel mediated side effects on the CNS and on heart rate | efficacious in lowering blood pressure |  |
|  |  |  | Cc1cc2nc(N)oc2c2ccccc12 [SKA-121, 5-methylnaphtho[2,1-d]oxazol-2-amine] | avoiding KCa2 channel mediated side effects on the CNS and on heart rate | efficacious in lowering blood pressure | 40–100 fold |
| 145 to 146 | inactive | inactive | Cc1nc2c(cc(C#N)c3ccccc32)o1 [SKA-135, 2-Methylnaphtho[1,2-d]oxazole-5-carbonitrile] |  |  |  |
| 140 to 141 | less potent than SKA-31 | less potent than SKA-31 | c1ccc(Nc2nc3c(ccc4ccccc43)s2)cc1 [SKA-146, N-Phenylnaphtho[1,2-d]thiazol-2-amine] |  |  |  |
| 187 to 188 | abolished activity on KCa2.2 | preserved it again on KCa3.1 | CNc1nc2c(ccc3ccccc32)s1 [SKA-158, N-Methylnaphtho[1,2-d]thiazol-2-amine] |  |  |  |
| 178 to 179 | inactive | inactive | Cc1nc2c(ccc3c([N+](=O)[O-])cccc32)s1 [SKA-215, 2-Methyl-6-nitronaphtho[1,2-d]thiazole] |  |  |  |
| 350 | completely devoid of activity | completely devoid of activity | Nc1nc(-c2ccc(-c3csc(N)n3)cc2)cs1 [SKA-230, 4,4'-(1,4-Phenylene)bis(thiazol-2-amine)] |  |  |  |
| 135 | completely abolished activity | completely abolished activity | FC(F)(F)c1cccc(Nc2nc(-c3cccc4ccccc34)cs2)c1 [SKA-251, 4-(Naphthalen-1-yl)-N-(3-(trifluoromethyl)phenyl)thiazol-2-amine] |  |  |  |
| 225 | completely abolished activity | completely abolished activity | c1ccc(Nc2nc(-c3cccc4ccccc34)cs2)nc1 [SKA-258, 4-(Naphthalen-1-yl)-N-(pyridin-2-yl)thiazol-2-amine] |  |  |  |
| 108 | completely devoid of activity | completely devoid of activity | Cc1ccc(-c2csc(Nc3cccc(C(F)(F)F)c3)n2)cc1 [SKA-260, 4-(p-Tolyl)-N-(3-(trifluoromethyl)phenyl)thiazol-2-amine] |  |  |  |
| 153 | completely devoid of activity | completely devoid of activity | FC(F)(F)c1ccc(Nc2nc(-c3ccccc3)cs2)cc1 [SKA-268, 4-Phenyl-N-(4-(trifluoromethyl)phenyl)thiazol-2-amine] |  |  |  |
| 289 to 291 | drastically reduced potency | drastically reduced potency | Nc1nc2c(cc([N+](=O)[O-])c3ccccc32)s1 [SKA-321, 5-Nitronaphtho[1,2-d]thiazol-2-amine] |  |  |  |
| 119 to 121 | somewhat reduced potency | somewhat reduced potency | CCN(CC)c1cc2sc(N)nc2c2ccccc12 [SKA-330, N^5,N^5-Diethylnaphtho[1,2-d]thiazole-2,5-diamine] |  |  |  |

| Compound | melting point [°C] | Whole-cell KCa2.2 response elicited by 10 µM of activator normalized to 10 µM SKA-31 (described in words) [3] | Whole-cell KCa3.1 response elicited by 10 µM of activator normalized to 10 µM SKA-31 (described in words) [4] | KCa2 channel mediated side effects on CNS and heart rate [1] | Blood pressure lowering [1] | Selectivity for KCa3.1 [2] |
| --- | --- | --- | --- | --- | --- | --- |
| Cc1ccc2cccc(-c3csc(N)n3)c2c1 [SKA-193, 4-(7-Methylnaphthalen-1-yl)thiazol-2-amine] | 154 to 156 | somewhat increased KCa channel activating potency | somewhat increased KCa channel activating potency |  |  |  |
| Cc1ccc2cc(-c3csc(N)n3)ccc2c1 [SKA-198, 4-(6-Methylnaphthalen-2-yl)thiazol-2-amine] | 178 to 179 | somewhat increased KCa channel activating potency | somewhat increased KCa channel activating potency |  |  |  |
